Measured values from patent publication US11110147B2, “Collagen hydrolysates as a beneficial prebiotic and their effect on joint inflammation and osteoarthritis” (ROUSSELOT B.V., priority 2017, dated 2021).

Test system: gut microbiome
Assay: Microbial 16S rDNA analysis of fecal samples
Type: in vivo, mice
Settings: 38 mg/day hCol1 or glucosamine, FIG. 10C
Experimental: FIGS. 10A-10C: hCol1 supplementation induces significant change in the gut microbiome. Microbial rDNA analysis was performed on fecal samples collected from lean and obese mice supplemented with control Nutella, 38 mg/day hCol1, or glucosamine. […] FIG. 10A: Principal coordinate analysis of microbial abundance from obese control Nutella (1), obese glucosamine (2), obese hCol1 (3), lean hCol1 (4), lean glucosamine (5) and lean control Nutella (6) mice. […] FIGS. 15A-15G: hCol1 and hCol2 supplementation induces significant change in the gut microbiome and provides protective effects in post-traumatic osteoarthritis. (FIG. 15A) Microbial rDNA analysis was performed on fecal samples collected from chow fed mice supplemented with control Nutella, 38 mg/day hCol1, or 15 mg/day hCol2 for 4 weeks. Bars show relative microbial abundance in the indicated groups. Each bar represents an average of 3 mice. In the chow diet, hCol 1 and 2 tended to have similar effects: Increases in the abundance of Bacteroidales, Lactobacillales, Turicibacterales, and Anaeroplasmatales. […] Panels depicting the tibia uncalcified cartilage area (FIG. 15B), the number of chondrocytes in the tibia uncalcified cartilage (FIG. 15C), the number (FIG. 15D) and percentage (FIG. 15E) of Safranin-O positive (SafO^+) chondrocytes in the tibia uncalcified cartilage, the femur uncalcified cartilage area (FIG. 15F), and the number of chondrocytes in the femur uncalcified cartilage (FIG. 15G) in Sham and DMM chow fed mice supplemented with vehicle (Nutella) (Control DMM), hCol1 (P1 DMM) or hCol2 (P2 DMM) at 12 weeks after injury. FIGS. 16A-16E: (FIG. 16A) Microbial rDNA analysis was performed on fecal samples collected from lean fed mice supplemented with control Nutella, 38 mg/day hCol1, or 15 mg/day hCol2. Bars show relative microbial abundance in the indicated groups. […] Panels depicting the tibia cartilage area (FIG. 16B), the tibia uncalcified cartilage area (FIG. 16C), the number of chondrocytes in the tibia uncalcified cartilage (FIG. 16D), and the percentage (FIG. 16E) of Safranin-O positive (SafO^+) chondrocytes in the tibia uncalcified cartilage in Sham and DMM lean fed mice supplemented with vehicle (Nutella) (Control DMM), hCol1 (P1 DMM) or hCol2 (P2 DMM) at 12 weeks after injury. FIG. 17A-17H: (FIG. 17A) Microbial rDNA analysis was performed on fecal samples collected from high fat (HF) (60% of caloric energy from saturated fat) fed mice supplemented with control Nutella, 38 mg/day hCol1, or 15 mg/day hCol2 for 4 weeks. Bars show relative microbial abundance in the indicated groups. […] Panels depicting the tibia cartilage area (FIG. 17B), the tibia uncalcified cartilage area (FIG. 17C), the number of chondrocytes in the tibia uncalcified cartilage (FIG. 17D), the number of Safranin-O positive (SafO^+) chondrocytes in the tibia uncalcified cartilage (FIG. 17E), the femur uncalcified cartilage area (FIG. 17F), the number of chondrocytes in the femur uncalcified cartilage (FIG. 17G), and the number of Safranin-O positive (SafO^+) chondrocytes in the femur uncalcified cartilage (FIG. 17H) in Sham and DMM high fat diet-fed mice supplemented with vehicle (Nutella) (Control DMM), hCol1 (P1 DMM) or hCol2 (P2 DMM) at 3 weeks after injury. FIG. 19: hCol2 alters the gut microbiome. Mice fed chow or high fat diet for 3 months were supplemented daily with hCol2 (HFD+hCol2) or vehicle (Nutella) (HFD) for 4 weeks. Fecal samples were collected and microbial rDNA analysis was performed. A subset of bacterial species was altered in high fat diet-fed mice compared to chow fed mice, and hCol2 supplementation changed the gut microbiome of these high fat diet-fed mice. Numerous proinflammatory species, particularly Peptococcaceae rc4-4 sp, were reduced in hCol2-supplemented mice (top heat map). Conversely, several anti-inflammatory species were enhanced in hCol2-supplemented animals, including Bifidobacterium pseudolongum (bottom heat map). […]

N[C@H]1C(O)O[C@H](CO)[C@@H](O)[C@@H]1O (some centres unmarked) [glucosamine]
relative microbial abundance: Actinobacteria (lean mice): 12.07%
relative microbial abundance: Bacteroidetes (lean mice): 13.4103%
relative microbial abundance: Firmicutes (lean mice): 72.6939%
relative microbial abundance: Tenericutes (lean mice): 1.1749%
relative microbial abundance: Verrucomicrobia (lean mice): 0.0119%
relative microbial abundance: Actinobacteria (lean mice, listed as Glucosamine): 12.7091%
relative microbial abundance: Actinobacteria (obese mice): 0.4928%
relative microbial abundance: Bacteroidetes (obese mice): 11.2335%
relative microbial abundance: Firmicutes (obese mice): 88.0274%
relative microbial abundance: Proteobacteria (obese mice): 0.0005%
relative microbial abundance: Verrucomicrobia (obese mice): 0.2458%
